Active and inactive are the calls of the source. The calls are words filed in the database; no cut-off is given here.
Columns and labels:
[1] = test system: Liver microsome; test: Metabolic stability in human liver microsomes at 1 uM after 60 mins by LC/MS analysis in presence of NADPH; assay type: ADME; conditions: 1 h
[2] = test system: Rattus norvegicus; test: Hepatotoxicity in Sprague-Dawley rat assessed as effect on serum bilirubin level at 50 to 1000 mg/kg, po bid for 2 weeks; assay type: toxicity, organism-based; parameters: dose 50-1000 mg/kg, route oral; conditions: in vivo, 336 h
[3] = test system: Rattus norvegicus; test: Reduction of albuminuria in (mRen-2)27 rat streptozotocin-induced diabetic nephropathy model assessed as reduction of albumin level in urine at 200 mg/kg, po qd for 8 weeks administered 8 weeks post-streptozotocin treatment by radioimmunoassay; assay type: functional, organism-based; parameters: dose 200 mg/kg
[4] = test system: Rattus norvegicus; test: Hepatotoxicity in Sprague-Dawley rat assessed as effect on serum ALT level at 50 to 1000 mg/kg, po bid for 2 weeks; assay type: toxicity, organism-based; parameters: dose 50-1000 mg/kg, route oral; conditions: in vivo, 336 h
[5] = test system: Rattus norvegicus; test: Renal toxicity in Sprague-Dawley rat assessed as effect on serum urate level at 50 to 1000 mg/kg, po bid for 2 weeks; assay type: organism-based; parameters: dose 50-1000 mg/kg, route oral; conditions: in vivo, 336 h
[6] = test system: Rattus norvegicus; test: Renal toxicity in Sprague-Dawley rat assessed as effect on serum creatinine level at 50 to 1000 mg/kg, po bid for 2 weeks; assay type: organism-based; parameters: dose 50-1000 mg/kg, route oral; conditions: in vivo, 336 h
[7] = Oral bioavailability in Sprague-Dawley rat at 20 mg/kg; assay type: ADME, organism-based; conditions: in vivo
[8] = test system: Rattus norvegicus; test: (§1) Tmax in Sprague-Dawley rat at 20 mg/kg, po; assay type: ADME, organism-based; parameters: dose 20 mg/kg, route oral; conditions: in vivo
[9] = test system: Rattus norvegicus; test: (§2) AUC (0 to infinity) in Sprague-Dawley rat at 20 mg/kg, po; assay type: ADME, organism-based, Plasma; parameters: dose 20 mg/kg, route oral, time infinity; conditions: in vivo
[10] = test system: Rattus norvegicus; test: (§3) Cmax in Sprague-Dawley rat at 20 mg/kg, po; assay type: ADME, organism-based; parameters: dose 20 mg/kg, route oral; conditions: in vivo
[11] = Drug level in Sprague-Dawley rat urine at 20 mg/kg, po; assay type: ADME, organism-based; parameters: dose 20 mg/kg, route oral; conditions: read-out: Drug uptake
[12] = test system: Rattus norvegicus; test: (§4) Apparent half life in Sprague-Dawley rat at 20 mg/kg, po; assay type: ADME, organism-based; parameters: dose 20 mg/kg, route oral; conditions: in vivo
[13] = AUC (0 to infinity) in Sprague-Dawley rat at 5 mg/kg, iv; assay type: ADME, organism-based; parameters: time infinity, dose 5 mg/kg, route intravenous; conditions: plasma
[14] = Volume of distribution at steady state in Sprague-Dawley rat at 5 mg/kg, iv; assay type: ADME, organism-based; parameters: dose 5 mg/kg, route intravenous; conditions: in vivo, read-out: Vdss
[15] = Drug level in Sprague-Dawley rat urine at 5 mg/kg, iv; assay type: ADME, organism-based; parameters: dose 5 mg/kg, route intravenous; conditions: read-out: Drug uptake
[16] = Plasma clearance in Sprague-Dawley rat at 5 mg/kg, iv; assay type: ADME, organism-based; parameters: dose 5 mg/kg, route intravenous
[17] = Apparent half life in Sprague-Dawley rat at 5 mg/kg, iv; assay type: ADME, organism-based; parameters: dose 5 mg/kg, route intravenous; conditions: in vivo, read-out: t1/2(app) (converted)
[18] = Antifibrotic activity in rat renal mesangial cells assessed as inhibition of TGF-beta1-induced [3H]-proline incorporation into collagen at 30 uM treated 4 hrs before TGF-beta1 addition measured after 44 hrs by liquid scintillation counting; assay type: functional, cell-based
[19] = Antifibrotic activity in rat renal mesangial cells assessed as inhibition of TGF-beta1-induced [3H]-proline incorporation into collagen at 10 uM treated 4 hrs before TGF-beta1 addition measured after 44 hrs by liquid scintillation counting; assay type: functional, cell-based
[20] = test system: Rattus norvegicus; test: Reduction of albuminuria in (mRen-2)27 rat streptozotocin-induced diabetic nephropathy model assessed as reduction of albumin level in urine at 400 mg/kg, po qd for 8 weeks administered 8 weeks post-streptozotocin treatment by radioimmunoassay; assay type: functional, organism-based; parameters: dose 400 mg/kg
[21] = as §1; assay type: ADME, organism-based; parameters: dose 20 mg/kg, route oral; conditions: Sprague-Dawley, in vivo
[22] = as §2; assay type: ADME, organism-based, Plasma; parameters: dose 20 mg/kg, route oral, time infinity; conditions: Sprague-Dawley, plasma
[23] = as §3; assay type: ADME, organism-based; parameters: dose 20 mg/kg, route oral; conditions: Sprague-Dawley, in vivo
[24] = as §4; assay type: ADME, organism-based; parameters: dose 20 mg/kg, route oral; conditions: Sprague-Dawley, in vivo

For O=C(/C=C/c1ccc(OC(F)F)c(OC(F)F)c1)Nc1ccccc1C(=O)O, which Stability [1] is on record?
Its Stability is “Stable”.

And the Activity [2]?
The Activity was “Non-toxic”.

What about the Activity [3] of the same molecule?
Its Activity is “Active”.

And the Activity [4]?
The Activity was “Non-toxic”.

What about the Activity [5] of the same molecule?
Its Activity is “Non-toxic”.

What about the Activity [6] of the same molecule?
The Activity was “Non-toxic”.

And the bioavailability [7]?
Its bioavailability is 73%.

And the Tmax [8]?
The Tmax was 2.5 h.

And the AUC [9]?
Its AUC is 2691 µM·h.

What about the Cmax [10] of the same molecule?
The Cmax was 200 µM.

What about the dose excreted [11] of the same molecule?
Its dose excreted is 1.7%.

What about the t1/2(app) [12] of the same molecule?
Its t1/2(app) is 5.4 h.

And the AUC(0-inf) [13]?
Its AUC(0-inf) is 894 µM·h.

What about the Vd [14] of the same molecule?
Its Vd is 0.1 L/kg.

And the dose excreted [15]?
Its dose excreted is 3.3%.

What about the clearance [16] of the same molecule?
The clearance was 0.2 mL/min/kg.

And the half-life [17]?
The half-life was 7.8 h.

What about the inhibition [18] of the same molecule?
Its inhibition is 100%.

And the inhibition [19]?
The inhibition was 60%.

With O=C(/C=C/c1ccc(OC(F)(F)F)c(F)c1)Nc1ccccc1C(=O)O as the molecule, how does the inhibition [19] read?
Its inhibition is 55%.

Which results are given for C#CCOc1cc(/C=C/C(=O)Nc2ccccc2C(=O)O)ccc1OC?
inhibition [18]: 55%; inhibition [19]: 20%

With O=C(/C=C/c1ccc2c(c1)OC(F)(F)O2)Nc1ccccc1C(=O)O as the molecule, how does the inhibition [18] read?
Its inhibition is 0%.

For COc1cc(/C=C/C(=O)Nc2ccccc2C(=O)O)ccc1OC(F)F, which inhibition [18] is on record?
The inhibition was 70%.

And the inhibition [19]?
Its inhibition is 20%.

With C/C(=C\C(=O)Nc1ccccc1C(=O)O)c1ccc(OC(F)F)c(OC(F)F)c1 as the molecule, how does the inhibition [19] read?
The inhibition was 100%.

For COc1cc(/C=C/C(=O)Nc2ccccc2C(=O)O)cc(OC)c1OC(F)F, which inhibition [18] is on record?
The inhibition was 80%.

What about the inhibition [19] of the same molecule?
Its inhibition is 24%.

Which results are given for COc1ccc(/C=C/C(=O)Nc2ccccc2C(=O)O)cc1OC(F)(F)F?
inhibition [18]: 100%; inhibition [19]: 92%

With COc1ccc(/C=C/C(=O)Nc2ccccc2C(=O)O)cc1OC [TRANILAST] as the molecule, how does the Activity [20] read?
The Activity was “Active”.

What about the bioavailability [7] of the same molecule?
Its bioavailability is 125%.

And the Tmax [21]?
Its Tmax is 1.75 h.

What about the AUC(0-inf) [22] of the same molecule?
Its AUC(0-inf) is 652 µM·h.

And the Cmax [23]?
The Cmax was 118 µM.

What about the dose excreted [11] of the same molecule?
The dose excreted was 1.9%.

What about the half-life [24] of the same molecule?
Its half-life is 3.3 h.

What about the AUC(0-inf) [13] of the same molecule?
Its AUC(0-inf) is 110 µM·h.

And the Vd [14]?
The Vd was 0.3 L/kg.

What about the dose excreted [15] of the same molecule?
Its dose excreted is 2.4%.

What about the clearance [16] of the same molecule?
The clearance was 2 mL/min/kg.

And the half-life [17]?
The half-life was 3.1 h.

And the inhibition [18]?
The inhibition was 40%.

And the inhibition [19]?
The inhibition was 15%.

For O=C(O)c1ccccc1NC(=O)C1CC1c1ccc(OC(F)F)c(OC(F)F)c1 (centres undefined), which inhibition [18] is on record?
The inhibition was 90%.

And the inhibition [19]?
Its inhibition is 70%.

For O=C(/C=C/c1ccc(OC(F)(F)C(F)F)cc1)Nc1ccccc1C(=O)O, which inhibition [19] is on record?
Its inhibition is 84%.

Which inhibition [18] does the source give for Nc1ccccc1NC(=O)/C=C/c1ccc(OC(F)F)c(OC(F)F)c1 here?
The inhibition was 79%.

And the inhibition [19]?
Its inhibition is 57%.

With O=S(=O)(/C=C/c1ccc(OC(F)F)c(OC(F)F)c1)Nc1ccccc1 as the molecule, how does the inhibition [19] read?
The inhibition was 0%.

For C/C(=C\c1ccc(OC(F)F)c(OC(F)F)c1)C(=O)Nc1ccccc1C(=O)O, which inhibition [19] is on record?
Its inhibition is 100%.

What does the source list for C#CCOc1cc(/C=C/C(=O)Nc2ccccc2C(=O)O)ccc1OC(F)F?
inhibition [18]: 100%; inhibition [19]: 73%

With O=C(/C=C/c1ccc(OC(F)F)c(OC(F)F)c1)Nc1ccc(Br)cc1C(=O)O as the molecule, how does the inhibition [19] read?
The inhibition was 100%.

From ChEMBL document CHEMBL3091327, “3',4'-Bis-difluoromethoxycinnamoylanthranilate (FT061): an orally-active antifibrotic agent that reduces albuminuria in a rat model of progressive diabetic nephropathy” (Bioorg Med Chem Lett, 2013)
